The target in experiment [1] is T1, human plasmin (Homo sapiens, UniProt P00747). The experiment is described as follows: biochemical. Particulars: read-out: Plasmin S-2251 (I50). Put shortly: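 Inhibitor in 0.05M Tris-HCl buffer, pH 7.4, was incubated with human plasmin added at 0.2 casein unit/ml (stock) at 37° C for 4 minutes, then stopped with 50% acetic acid. I50 (μmol) is the inhibitor concentration giving half the absorbance obtained without inhibitor.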

For the next experiment, the target named is human plasma kallikrein (Homo sapiens, UniProt P03952). Put plainly: Anti-plasma kallikrein activity: inhibition of S-2302 decomposition. It counts as biochemical. The following applies: Table 2; S-2302 substrate, pH 7.8, 37° C.; read-out: Plasma Kallikrein S-2302 (I50).
human plasma kallikrein, sequence (P03952 391-638 limits assumed): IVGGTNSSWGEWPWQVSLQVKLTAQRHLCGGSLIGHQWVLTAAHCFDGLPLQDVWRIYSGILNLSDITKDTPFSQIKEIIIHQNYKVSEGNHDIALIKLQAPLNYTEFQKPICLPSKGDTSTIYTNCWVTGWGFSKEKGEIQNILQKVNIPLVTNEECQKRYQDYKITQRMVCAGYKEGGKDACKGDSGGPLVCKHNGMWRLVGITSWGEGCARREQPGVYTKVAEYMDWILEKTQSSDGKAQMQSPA
human plasma kallikrein, sequence (P03952 20-390 partner limits assumed): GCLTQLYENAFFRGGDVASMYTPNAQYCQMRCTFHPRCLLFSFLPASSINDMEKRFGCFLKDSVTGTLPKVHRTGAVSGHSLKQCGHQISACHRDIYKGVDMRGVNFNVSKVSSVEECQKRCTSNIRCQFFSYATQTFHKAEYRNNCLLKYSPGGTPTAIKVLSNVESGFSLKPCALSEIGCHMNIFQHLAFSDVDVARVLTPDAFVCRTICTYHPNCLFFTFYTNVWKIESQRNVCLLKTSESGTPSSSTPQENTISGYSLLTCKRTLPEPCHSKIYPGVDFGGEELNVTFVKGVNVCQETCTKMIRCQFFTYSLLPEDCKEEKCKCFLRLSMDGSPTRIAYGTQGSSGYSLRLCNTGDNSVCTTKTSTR
The next experiment addresses human urokinase (Homo sapiens, UniProt P00749). The experiment is described as follows: biochemical. Particulars: Table 2; S-2444 substrate, pH 8.8, 37° C.; read-out: Urokinase S-2444 (I50). In a few lines: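 Inhibitor in 0.05M Tris-HCl pH 8.8 preincubated 5 min at 37° C with S-2444 (1 mM solution added), then human urokinase (500 unit/ml solution) added for 5 min at 37° C; stopped with 50% acetic acid. p-Nitroaniline read at 405 nm; I50 is concentration halving absorbance versus no inhibitor.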

In experiment [2] the target is T1, human plasmin. The experiment is described as follows: Antiplasmin activity: inhibition of fibrin decomposition. The format is biochemical. The following applies: Table 2; concentration at which fibrin dissolution time is extended twice, pH 7.4, 37° C.; read-out: Plasmin Fibrin (I50). In a few lines: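 Inhibitor in 0.18 M borate–physiological saline buffer, pH 7.4, received bovine fibrinogen (0.2% solution), human plasmin (0.3 casein unit/ml solution) and bovine thrombin (50 unit/ml solution) at 37 °C. Time for the resulting fibrin clot to dissolve was recorded.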

The target in another experiment is T2, bovine trypsin (Bos taurus, UniProt P00760).
T2 sequence (P00760 24-246): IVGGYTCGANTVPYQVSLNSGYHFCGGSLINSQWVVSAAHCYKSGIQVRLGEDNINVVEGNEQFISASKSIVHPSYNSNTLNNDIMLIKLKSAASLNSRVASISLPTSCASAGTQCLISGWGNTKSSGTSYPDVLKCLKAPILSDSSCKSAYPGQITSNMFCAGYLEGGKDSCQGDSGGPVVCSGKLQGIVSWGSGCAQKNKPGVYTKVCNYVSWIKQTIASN
The experiment is described as follows: Antitrypsin activity: inhibition of S-2238 decomposition. The format is biochemical. Particulars: Table 2; S-2238 substrate, pH 8.1, 37° C.; read-out: Trypsin S-2238 (I50).

Experiment [3] deals with T3, bovine thrombin (Bos taurus, UniProt P00735). Put plainly: Antithrombin activity: inhibition of S-2238 decomposition. The format is biochemical. Put shortly: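 Inhibitor in 0.05 M Tris-HCl, pH 8.3, preincubated with S-2238 (0.2 mM stock) for 5 min at 37 °C. Bovine thrombin (0.2 unit/ml stock) then added, and p-nitroaniline release followed at 405 nm by initial velocity at 37 °C. I50 is the concentration halving the rate.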

Experiment [4] has as its target T3, bovine thrombin. The experiment is described as follows: Antithrombin activity: inhibition of fibrin formation from fibrinogen. The format is biochemical. In a few lines:
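Inhibitor in 0.18M borate-saline buffer pH 7.4 mixed with 0.2% bovine fibrinogen and 4 unit/ml bovine thrombin (stock levels) at 37° C; clotting time measured. I50 is the inhibitor concentration doubling coagulation time versus uninhibited control.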

Setting [5] is: Table 2, S-2238 substrate, pH 8.3, 37° C., read-out: Thrombin S-2238 (I50).
[6] abbreviates: Table 2, 50% inhibition concentration, S-2251 substrate, pH 7.4, 37° C.
[7] abbreviates: read-out: Thrombin Fibrinogen (I50), Table 2, concentration at which coagulation time of bovine fibrinogen is extended twice, pH 7.4, 37° C.

T1 sequence (P00747 581-810 limits assumed): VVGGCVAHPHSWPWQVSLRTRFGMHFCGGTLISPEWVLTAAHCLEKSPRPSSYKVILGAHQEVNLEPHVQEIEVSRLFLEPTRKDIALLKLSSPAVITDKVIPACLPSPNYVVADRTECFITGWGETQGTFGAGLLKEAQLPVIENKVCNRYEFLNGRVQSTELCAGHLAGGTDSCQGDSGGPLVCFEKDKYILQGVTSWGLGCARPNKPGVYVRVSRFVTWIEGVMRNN
T1 sequence (P00747 97-580 partner limits assumed): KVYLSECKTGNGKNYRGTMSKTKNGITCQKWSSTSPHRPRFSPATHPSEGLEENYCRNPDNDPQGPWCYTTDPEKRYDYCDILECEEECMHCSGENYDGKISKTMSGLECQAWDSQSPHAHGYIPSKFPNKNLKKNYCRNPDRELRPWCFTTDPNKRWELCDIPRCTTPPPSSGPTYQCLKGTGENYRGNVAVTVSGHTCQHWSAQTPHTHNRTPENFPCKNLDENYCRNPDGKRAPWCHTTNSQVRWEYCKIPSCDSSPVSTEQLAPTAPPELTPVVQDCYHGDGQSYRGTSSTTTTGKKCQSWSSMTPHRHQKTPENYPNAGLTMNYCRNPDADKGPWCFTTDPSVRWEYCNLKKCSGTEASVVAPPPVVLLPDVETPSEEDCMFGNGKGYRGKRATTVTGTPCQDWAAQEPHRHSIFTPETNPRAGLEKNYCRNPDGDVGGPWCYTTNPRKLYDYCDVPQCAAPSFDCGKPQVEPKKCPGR
Protocol for human plasma kallikrein: Determination of inhibition activity for S-2302 decomposition
An inhibitor sample is dissolved in a 0.05M Tris-hydrochloric acid buffer solution (pH=7.8) to make the total volume to 400 μl. To this solution, 50 μl of a 2 mM S-2302 solution is added and the mixture is incubated at a temperature of 37° C. for 5 minutes in a constant temperature bath. Then, 50 μl of a 0.12 unit/ml human plasma kallikrein is added and the mixture is incubated at a temperature of 37° C. for 5 minutes. Thereafter, 50 μl of 50% acetic acid is added to terminate the reaction. The absorbance of the p-nitroaniline formed in the reaction mixture is measured at 405 nm. Thus, the concentration I50 (μmol) of the inhibitor sample, at which the absorbance is one half (i.e., 1/2) of that obtained in the absence of the inhibitor sample, is determined.

Turning to `CC(=O)c1ccc(NC(=O)[C@H](Cc2ccc(OCc3ccncc3)cc2)NC(=O)[C@H]2CC[C@H](CN)CC2)cc1` [compound 68], the IC50 on human plasmin [1] is 1.2 µM; on human plasma kallikrein, 1.2 µM; on human urokinase, 25 µM; at human plasmin [2], 0.65 µM; on bovine trypsin it was 1 µM; on bovine thrombin [3] (setting [5]), more than 400 µM. The IC50 against bovine thrombin [4] is more than 500 µM.

As for `CCOC(=O)C1CCCC(NC(=O)[C@H](Cc2ccc(OCc3cccc(Cl)c3)cc2)NC(=O)[C@H]2CC[C@H](CN)CC2)C1` (stereo partly shown) [compound 70], the IC50 at human plasmin [1] (setting [6]) worked out at 1.7 µM; at human plasma kallikrein, 6.2 µM; at human urokinase it was 82 µM; at human plasmin [2], 0.63 µM; at bovine trypsin it was 1.3 µM; at bovine thrombin [3] (setting [5]), 170 µM. Besides, the IC50 on bovine thrombin [4] (setting [7]) is more than 50 µM.

In the case of `CCOC(=O)C1CCCC(NC(=O)[C@H](Cc2ccc(OCc3cccc(Cl)c3)cc2)NC(=O)c2ccc(CN)cc2)C1` (stereo partly shown) [compound 72], the IC50 was 2.1 µM on human plasmin [1] (setting [6]); 25 µM on human plasma kallikrein; more than 200 µM at human urokinase; 0.62 µM on human plasmin [2]; 0.95 µM at bovine trypsin; more than 50 µM at bovine thrombin [3] (setting [5]). The IC50 at bovine thrombin [4] (setting [7]) was more than 25 µM.

For the compound `NCc1ccc(C(=O)N[C@@H](Cc2ccc(OCc3ccccc3)cc2)C(=O)N2CCN(C(=O)c3ccccc3)CC2)cc1` [compound 73], the IC50 is 220 µM on human plasmin [1]; more than 200 µM on human plasma kallikrein; more than 200 µM on human urokinase; 210 µM on human plasmin [2]; 450 µM at bovine trypsin; more than 400 µM at bovine thrombin [3] (setting [5]). For the same compound, the IC50 against bovine thrombin [4] was more than 400 µM.

As for `CCOC(=O)c1cccc(NC(=O)[C@H](Cc2ccc(OCc3ccccc3)cc2)NC(=O)[C@H]2CC[C@H](CN)CC2)c1` [compound 75], the IC50 is 5.6 µM on human plasmin [1]; 2.4 µM at human plasma kallikrein; 65 µM on human urokinase; 0.88 µM on human plasmin [2]; 1.1 µM at bovine trypsin; more than 125 µM on bovine thrombin [3] (setting [5]). At bovine thrombin [4], the IC50 is more than 100 µM.

As to `NCc1ccc(C(=O)N[C@@H](Cc2ccc(OCc3ccccc3)cc2)C(=O)N2CCC(C(=O)c3ccccc3)CC2)cc1` [compound 76], the IC50 on human plasmin [1] is 5.8 µM; at human plasma kallikrein, more than 200 µM; on human urokinase, more than 250 µM; on human plasmin [2], 2.4 µM; on bovine trypsin, 38 µM; at bovine thrombin [3] (setting [5]), more than 50 µM. In addition, on bovine thrombin [4], the IC50 was more than 25 µM.

Consider `NCc1ccc(C(=O)N[C@@H](Cc2ccc(OCc3ccccc3)cc2)C(=O)NCCc2ccccc2)cc1` [compound 78], for which the IC50 on human plasmin [1] was 3.8 µM; at human plasma kallikrein, 100 µM; on human urokinase, more than 200 µM; on human plasmin [2] it was 0.75 µM; on bovine trypsin, 9.2 µM; at bovine thrombin [3], more than 50 µM. In addition, on bovine thrombin [4], the IC50 was more than 50 µM.

In the case of `CC1CCCC(NC(=O)[C@H](Cc2ccc(OCc3ccccc3)cc2)NC(=O)c2ccc(CN)cc2)C1C` (stereo partly shown) [compound 82], the IC50 on human plasmin [1] (setting [6]) was 8.5 µM; at human plasma kallikrein, 40 µM; on human urokinase, more than 400 µM; at human plasmin [2], 2.9 µM; on bovine trypsin it was 7 µM; on bovine thrombin [3] (setting [5]) it was more than 50 µM. The IC50 on bovine thrombin [4] (setting [7]) is more than 25 µM.

As to `CC(=O)c1ccc(NC(=O)[C@H](Cc2ccc(OCc3ccccc3Cl)cc2)NC(=O)[C@H]2CC[C@H](CN)CC2)cc1` [compound 83], the IC50 on human plasmin [1] is 0.89 µM; at human plasma kallikrein, 0.51 µM; on human urokinase, 58 µM; on human plasmin [2], 0.21 µM; on bovine trypsin it was 1.5 µM; at bovine thrombin [3] (setting [5]), more than 200 µM. On bovine thrombin [4], this compound came in with an IC50 of more than 50 µM.

Consider `CCOC(=O)c1ccc(COc2ccc(C[C@H](NC(=O)[C@H]3CC[C@H](CN)CC3)C(=O)Nc3ccc(C(C)=O)cc3)cc2)cc1` [compound 86], for which the IC50 on human plasmin [1] was 0.95 µM; on human plasma kallikrein, 0.42 µM; at human urokinase, 23 µM; on human plasmin [2] it was 0.35 µM; at bovine trypsin, 0.97 µM; at bovine thrombin [3] (setting [5]) it was more than 100 µM. For the same compound, the IC50 at bovine thrombin [4] is more than 50 µM.

Regarding `NCc1ccc(C(=O)N[C@@H](Cc2ccc(OCc3ccccc3)cc2)C(=O)NC2CCC(O)CC2)cc1` (stereo partly shown) [compound 88], the IC50 is 33 µM at human plasmin [1]; 120 µM at human plasma kallikrein; more than 200 µM at human urokinase; more than 20 µM at human plasmin [2]; 52 µM on bovine trypsin; more than 200 µM on bovine thrombin [3] (setting [5]). The compound further registered an IC50 at bovine thrombin [4] of more than 20 µM.

On to `NCC1CCC(C(=O)NC(Cc2ccc(OCc3cccc(Cl)c3)cc2)C(=O)Nc2cccc(S(N)(=O)=O)c2)CC1` (stereo not shown) [compound 93], for which the IC50 on human plasmin [1] was 1.6 µM; at human plasma kallikrein, 1.2 µM; at human urokinase it was 78 µM; on human plasmin [2] it was 0.32 µM; on bovine trypsin, 2.5 µM; at bovine thrombin [3] (setting [5]) it was more than 200 µM. On bovine thrombin [4], the IC50 was more than 100 µM.

As to `CC1CCC(NC(=O)C(Cc2ccc(OCc3cccc(Cl)c3)cc2)NC(=O)C2CCC(CN)CC2)CC1C` (stereo not shown) [compound 102], the IC50 at human plasmin [1] is 0.69 µM; at human plasma kallikrein it was 3.5 µM; at human urokinase it was 320 µM; at human plasmin [2] it was 0.16 µM; at bovine trypsin, 1.3 µM; on bovine thrombin [3] (setting [5]) it was more than 400 µM. At bovine thrombin [4], this compound yielded an IC50 of more than 50 µM.

With `CCOC(=O)C1CCCC(NC(=O)[C@H](Cc2ccc(OCc3ccc(F)cc3)cc2)NC(=O)c2ccc(CN)cc2)C1` (stereo partly shown) [compound 105], the IC50 was 4.2 µM at human plasmin [1] (setting [6]); 40 µM on human plasma kallikrein; more than 200 µM at human urokinase; 2.6 µM on human plasmin [2]; 2.5 µM at bovine trypsin; more than 50 µM on bovine thrombin [3] (setting [5]). Further, the IC50 on bovine thrombin [4] (setting [7]) was more than 50 µM.

On to `CC1CCC(NC(=O)C(Cc2ccc(Oc3ccc([N+](=O)[O-])cc3)cc2)NC(=O)c2ccc(CN)cc2)CC1C` (stereo not shown) [compound 109], for which the IC50 on human plasmin [1] was 0.58 µM; on human plasma kallikrein, 20 µM; on human urokinase, more than 200 µM; on human plasmin [2], 0.27 µM; on bovine trypsin, 0.43 µM; on bovine thrombin [3] (setting [5]) it was more than 50 µM. On bovine thrombin [4], the IC50 is more than 40 µM.

As for `CC(=O)c1ccc(NC(=O)C(Cc2ccc(OCc3ccccc3)cc2)NC(=O)c2ccc(CN)cc2)cc1` (stereo not shown) [compound 118], the IC50 on human plasmin [1] is 3.4 µM; on human plasma kallikrein, 3.7 µM; on human urokinase, more than 150 µM; at human plasmin [2], 0.77 µM; at bovine trypsin it was 3 µM; at bovine thrombin [3] (setting [5]), more than 50 µM. Besides, on bovine thrombin [4], the IC50 was more than 50 µM.

Regarding `CC(=O)c1ccc(NC(=O)C(Cc2ccc(Oc3cc(Cl)ccc3[N+](=O)[O-])cc2)NC(=O)C2CCC(CN)CC2)cc1` (stereo not shown) [compound 123], the IC50 at human plasmin [1] was 0.39 µM; on human plasma kallikrein it was 0.078 µM; at human urokinase, 26 µM; at human plasmin [2] it was 0.28 µM; at bovine trypsin it was 0.71 µM; on bovine thrombin [3] (setting [5]), 95 µM. The IC50 on bovine thrombin [4] is more than 50 µM.

`NC[C@H]1CC[C@H](C(=O)N[C@@H](Cc2ccc(OCc3ccc(Cl)c(Cl)c3)cc2)C(=O)Nc2ccncc2)CC1` [compound 127]: the IC50 at human plasmin [1] is 1.5 µM; at human plasma kallikrein it was 0.41 µM; at human urokinase it was 20 µM; at human plasmin [2] it was 0.29 µM; on bovine trypsin, 1.8 µM; at bovine thrombin [3] (setting [5]), more than 200 µM. The same compound came in with an IC50 at bovine thrombin [4] of more than 50 µM.

In the case of `NC[C@H]1CC[C@H](C(=O)N[C@@H](Cc2ccc(OCc3cccc(Cl)c3)cc2)C(=O)Nc2ccnc(Cl)c2)CC1` [compound 128], the IC50 is 1.4 µM at human plasmin [1]; 0.44 µM at human plasma kallikrein; 82 µM on human urokinase; 0.3 µM on human plasmin [2]; 1.3 µM at bovine trypsin; more than 1000 µM on bovine thrombin [3] (setting [5]). On bovine thrombin [4], the IC50 is more than 100 µM.
